Measured values from patent publication US8722867B2, “Gene therapy vectors and cytosine deaminases” (priority 2008, dated 2014).

System: TU-2449 tumors
Test: HPLC analysis of 5-FC and 5-FU in excised TU-2449 tumors
Format: in vivo, mice
Settings: Groups 2 and 3: PBS instead of vector, 5-FC 250 or 500 mg/kg IP
Procedure: The study consisted of 6 groups of female mice (see Table below). All groups underwent intracranial administration into the right striatum of 1E4 TU-2449 cells administered/mouse on Day 0. At Day 4, all groups received intracranial/intratumoral administration of AC3-YCD2 (V) vector at 2.4E6 TU/5 ul (Lot#T511019) or PBS buffer control.
AC3-yCD2 (V) (5 μL) was infused at 0.33 μL per minute (15 minutes, followed by a hold of 5 minutes) intracranially at the same coordinates as TU-2449 cells were injected.
From each brain, tumors were isolated and trimmed if large enough for multiple analyses (more than 0.05 g). Tumors sections for HPLC analysis were crushed in a 1.5 mL centrifuge tube using a plunger from a 1 mL syringe. Crushed samples were mixed with 150 uL RIPA buffer and vortexed vigorously for 10 minutes. Samples were spun at 4° C. at 20000 rcf for 10 minutes. Supernatants were removed and mixed thoroughly with 150 uL of 10% trichloroacetic acid and spun as above. […] Data was expressed in relative milli absorbance units (mAU) of peak area from the chromatograms.

Nc1nc(=O)[nH]cc1F [5-FC, 5-fluorocytosine]
5-FC and 5-FU HPLC signals in tumor: detectable 5-FC signals but no signal for 5-FU
